# Laboratory results: ChEMBL document CHEMBL3044893, “Synthesis and structureactivity relationships of aliphatic isothiocyanate analogs as antibiotic agents” (Med Chem Res, 2013)
# Assays:
# Rhizoctonia solani [1] = experiment: Growth inhibition of Rhizoctonia solani at 50 ug/ml after 24 to 28 […] by growth rate method; type: functional; conditions: read-out: GI
# [2] = 1-octanol-water partition coefficient, log P of the compound by shake flask method; type: physicochemical
# [3] = system: Pectobacterium carotovorum; experiment: Growth inhibition of Pectobacterium carotovorum at 10 ug/ml after 12 hr by turbidometric analysis; type: functional; conditions: read-out: GI
# Rhizoctonia solani [4] = experiment: Growth inhibition of Rhizoctonia solani at 300 ug/ml after 24 to 28 […] by growth rate method; type: functional; conditions: read-out: GI
# [5] = system: Pectobacterium carotovorum; experiment: Growth inhibition of Pectobacterium carotovorum at 30 ug/ml after 12 hr by turbidometric analysis; type: functional; conditions: read-out: GI
# Rhizoctonia solani [6] = experiment: Antifungal activity against Rhizoctonia solani after 24 to 28 […] by growth rate method; type: functional, organism-based
# Rhizoctonia solani [7] = experiment: Growth inhibition of Rhizoctonia solani at 10 ug/ml after 24 to 28 […] by growth rate method; type: functional; conditions: read-out: GI
# [8] = system: Pectobacterium carotovorum; experiment: Growth inhibition of Pectobacterium carotovorum at 5 ug/ml after 12 hr by turbidometric analysis; type: functional; conditions: read-out: GI
# Rhizoctonia solani [9] = experiment: Growth inhibition of Rhizoctonia solani at 100 ug/ml after 24 to 28 […] by growth rate method; type: functional; conditions: read-out: GI
# [10] = system: Pectobacterium carotovorum; experiment: Growth inhibition of Pectobacterium carotovorum at 20 ug/ml after 12 hr by turbidometric analysis; type: functional; conditions: read-out: GI
# [11] = system: Pectobacterium carotovorum; experiment: Antibacterial activity against Pectobacterium carotovorum after 12 hr by turbidometric analysis; type: functional, organism-based
# Rhizoctonia solani [12] = experiment: Growth inhibition of Rhizoctonia solani at 500 ug/ml after 24 to 28 […] by growth rate method; type: functional; conditions: read-out: GI
# [13] = system: Pectobacterium carotovorum; experiment: Growth inhibition of Pectobacterium carotovorum at 50 ug/ml after 12 hr by turbidometric analysis; type: functional; conditions: read-out: GI
# [14] = system: Pectobacterium carotovorum; experiment: Growth inhibition of Pectobacterium carotovorum at 0.5 ug/ml after 12 hr by turbidometric analysis; type: functional; conditions: read-out: GI
# [15] = system: Pectobacterium carotovorum; experiment: Growth inhibition of Pectobacterium carotovorum at 0.01 ug/ml after 12 hr by turbidometric analysis; type: functional; conditions: read-out: GI
# [16] = system: Pectobacterium carotovorum; experiment: Growth inhibition of Pectobacterium carotovorum at 1 ug/ml after 12 hr by turbidometric analysis; type: functional; conditions: read-out: GI
# [17] = system: Pectobacterium carotovorum; experiment: Growth inhibition of Pectobacterium carotovorum at 0.2 ug/ml after 12 hr by turbidometric analysis; type: functional; conditions: read-out: GI
# [18] = system: Pectobacterium carotovorum; experiment: Growth inhibition of Pectobacterium carotovorum at 0.02 ug/ml after 12 hr by turbidometric analysis; type: functional; conditions: read-out: GI
# [19] = system: Pectobacterium carotovorum; experiment: Growth inhibition of Pectobacterium carotovorum at 2 ug/ml after 12 hr by turbidometric analysis; type: functional; conditions: read-out: GI
# [20] = system: Pectobacterium carotovorum; experiment: Growth inhibition of Pectobacterium carotovorum at 0.05 ug/ml after 12 hr by turbidometric analysis; type: functional; conditions: read-out: GI
# Rhizoctonia solani [21] = experiment: Growth inhibition of Rhizoctonia solani at 5 ug/ml after 24 to 28 […] by growth rate method; type: functional; conditions: read-out: GI
# Rhizoctonia solani [22] = experiment: Growth inhibition of Rhizoctonia solani at 70 ug/ml after 24 to 28 […] by growth rate method; type: functional; conditions: read-out: GI
# [23] = system: Pectobacterium carotovorum; experiment: Growth inhibition of Pectobacterium carotovorum at 70 ug/ml after 12 hr by turbidometric analysis; type: functional; conditions: read-out: GI
# Rhizoctonia solani [24] = experiment: Growth inhibition of Rhizoctonia solani at 25 ug/ml after 24 to 28 […] by growth rate method; type: functional; conditions: read-out: GI
# [25] = system: Pectobacterium carotovorum; experiment: Growth inhibition of Pectobacterium carotovorum at 80 ug/ml after 12 hr by turbidometric analysis; type: functional; conditions: read-out: GI
# [26] = system: Pectobacterium carotovorum; experiment: Growth inhibition of Pectobacterium carotovorum at 100 ug/ml after 12 hr by turbidometric analysis; type: functional; conditions: read-out: GI
# Rhizoctonia solani [27] = experiment: Growth inhibition of Rhizoctonia solani at 15 ug/ml after 24 to 28 […] by growth rate method; type: functional; conditions: read-out: GI
SMILES,inhibition of growth at 50 µg/mL (Rhizoctonia solani [1]) [%],logP [2],inhibition of growth at 10 µg/mL [3] [%],inhibition of growth at 300 µg/mL (Rhizoctonia solani [4]) [%],EC50 (Rhizoctonia solani [6]) [µg/mL],inhibition of growth at 10 µg/mL (Rhizoctonia solani [7]) [%],inhibition of growth at 5 µg/mL [8] [%],inhibition of growth at 100 µg/mL (Rhizoctonia solani [9]) [%],inhibition of growth at 20 µg/mL [10] [%],EC50 [11] [µg/mL],inhibition of growth at 500 µg/mL (Rhizoctonia solani [12]) [%],inhibition of growth at 50 µg/mL [13] [%],inhibition of growth at 5 µg/mL (Rhizoctonia solani [21]) [%],other results
CCCCCCCN=C=S [1-ISOTHIOCYANATOHEPTANE],46.6,4.19,68,75.1,54.5,21.6,28.8,62,84.1,7.51,89.1,97,–,inhibition of growth at 30 µg/mL [5]: 94.4%
CCCCCCN=C=S [1-ISOTHIOCYANATOHEXANE],–,3.68,–,–,–,–,–,–,–,–,–,–,–,–
CCCCCCCCN=C=S [1-ISOTHIOCYANATOOCTANE],66.1,4.7,83.1,82.2,34.7,21.8,70.6,74.8,–,1.17,84.2,–,–,inhibition of growth at 0.5 µg/mL [14]: 24.7%; inhibition of growth at 0.01 µg/mL [15]: 6.4%; inhibition of growth at 1 µg/mL [16]: 47.8%
CCCCCN=C=S [1-ISOTHIOCYANATOPENTANE],34.9,3.17,–,69,90,16,72.3,44.6,–,2.03,87.4,–,–,inhibition of growth at 0.2 µg/mL [17]: 22.3%; inhibition of growth at 0.02 µg/mL [18]: 2.04%; inhibition of growth at 0.5 µg/mL [14]: 26.2%; inhibition of growth at 2 µg/mL [19]: 36%
CCCCN=C=S [BUTYL ISOTHIOCYANATE],57.7,2.66,43.9,91.6,42.8,15.5,31.7,68.2,84.4,26.1,–,–,3.72,inhibition of growth at 0.2 µg/mL [17]: 10.7%; inhibition of growth at 0.05 µg/mL [20]: 6.38%
CCN=C=S [ETHYL ISOTHIOCYANATE],67.3,1.64,6.74,–,3.52,61.1,–,91.8,11.7,41.6,–,64.6,58.8,inhibition of growth at 30 µg/mL [5]: 48.5%; inhibition of growth at 70 µg/mL (Rhizoctonia solani [22]): 73.9%; inhibition of growth at 70 µg/mL [23]: 94.8%
CN=C=S [METHYLISOTHIOCYANATE],77.5,1.13,10.9,–,12.3,41.5,–,84.6,29.9,38.2,–,61.1,–,inhibition of growth at 25 µg/mL (Rhizoctonia solani [24]): 66.3%; inhibition of growth at 80 µg/mL [25]: 71.5%; inhibition of growth at 100 µg/mL [26]: 81.3%; inhibition of growth at 15 µg/mL (Rhizoctonia solani [27]): 49.7%
CCCN=C=S [PROPYL ISOTHIOCYANATE],68,2.15,29,93.7,12,50.1,–,84.2,47,20.6,–,76.3,21.4,inhibition of growth at 80 µg/mL [25]: 86%; inhibition of growth at 100 µg/mL [26]: 90.7%
